Data published in patent publication US7723576B2, “Method of selectively producing male or female sterile plants” (Syngenta Limited, priority 2003, dated 2010).

Legend:
[1] = test system: conditionally male sterile tobacco plants; assay: Foliar spray on conditionally male sterile transgenic tobacco (TA29-deacetylase plus plastocyanin-PAT); format: in vivo
Procedure: Tobacco plant material is transformed, via Agrobacterium, with vector and transgenic plants are regenerated in a similar manner to that described in the previous example. The plants produced are self-fertile but are conditionally male sterile. Seeds of the T1 generation are planted out into soil. Once plantlets have grown to a sufficient size they are tested by PCR for the presence of transgene. PCR positive plants are transferred to the greenhouse. These plants are fully fertile in the absence of exogenously applied herbicide. A subset of these putatively conditionally sterile T1 plants, or, alternatively plantlets of T0 ‘events’ (direct regenerants from transformation) are treated with phosphinothricin in various amounts and at varying growth stages. Where To plants are treated they are vegetatively cloned so that untreated siblings of the events are set aside for seed production. […] For example, phosphinothricin is applied as a foliar spray, prior to or during the early stages of flower formation, at rates usually between 0.25 and 20 kg/ha.
Pollen from the treated plants is collected and viability is tested. […] Pollen collected from some of the treated plants is tested and found to be malformed and non-viable. […]

[2] = test system: conditionally female sterile tobacco plants; assay: Foliar spray on conditionally female sterile transgenic tobacco (stig1-deacetylase plus plastocyanin-PAT); format: in vivo, Nicotiana tabacum var. Samsun
Procedure: Tobacco leaf discs are transformed with the recombinant binary vectors using methods similar to those described in Horsch et al (1985) Science, 227, 1229-1231. Many variations of the method may be used. The binary vector can be transformed into, for example, Agrobacterium tumefaciens strain LBA 4404 using the freeze thaw method of transformation. Tobacco transformation and whole plant regeneration is performed using Nicotiana tabacum var. Samsun according to protocols described by Draper et al (Plant Genetic Transformation, Blackwell Sci. Pub. 1989). Transformation events are selected on MS-media containing kanamycin or other suitable antibiotic. Alternatively selection is made on phosphinothricin. The presence of integrated transgenes is confirmed by PCR. Plants are regenerated and allowed to reach maturity and selfed on to produce seed. Northern and/or Western analysis is used to confirm tissue-specific expression of the deacetylase. The plants are self-fertile but have the condition of conditional female sterility. Seeds of the T1 generation are planted out. Once plantlets have grown to a sufficient size they are tested by PCR for the presence of transgene. PCR positive plants are transferred to the greenhouse. These plants are fully fertile in the absence of exogenously applied phosphinothricin. A subset of these (putatively) conditionally sterile plants are treated with DL-phosphiothricin or L phosphinothricin in various amounts and at varying growth stages. Such treatments are carried out on the T1 plants confirmed as PCR positive for the deacetylase gene, or, equally, such treatments are carried out directly on plants of the To generation (which are vegetatively cloned so that untreated clones of each event may be set aside for seed production). […] For example, phosphinotricin is applied as a foliar spray, prior to or during the early stages of flower formation, at rates usually between 0.25 and 20 kg/ha. Undamaged appearing plants are selected and pollen from the treated plants is collected and viability is tested. […]

[3] = test system: transgenic plants comprising a PAT gene under operable control of the plastocyanin promoter region; assay: Foliar spray on control transgenic tobacco with PAT gene under plastocyanin promoter, no deacetylase gene; format: in vivo, Nicotiana tabacum var. Samsun; settings: rates in excess of 2 kg/ha; no deacetylase co-expressed
[4] = test system: wheat plants with PAT gene under plastocyanin promoter region; assay: Application to wheat plants expressing PAT under a plastocyanin promoter region; format: in vivo; settings: rates of at least 2 kg/ha
Text: Firstly, the PAT gene is expressed under operable control of a plastocyanin promoter region so that it is expressed substantially only in the green tissues of the plant. […] Thus a critical feature of the constructs described in the foregoing examples which are used to provide the plants of the current example is that the PAT gene which provides the resistance trait is expressed under operable control of a promoter region which provides for expression in substantially only the green tissues. A characteristic of such a useful promoter region is that it should express PAT in such a way that it protects adequately all the […] floral tissues from foliarly applied DL phosphinothricin whilst, at the same time, providing only a minimal level of PAT expression in the floral tissue itself and especially low in those parts targeted for conditional sterility. With PAT expressed under operable control of the barley plastocyanin promoter region this condition appears to be met since substantially all of the L-phosphinothricin which is sprayed enters via the leaves is intercepted and converted to non-phytotoxic N-acetyl-L-phosphinothricin before it translocated to developing floral tissues. […]

Compound	pollen shed and viability after treatment ([1]; foliar spray prior to or during early flower formation, rates usually between 0.25 and 20 kg/ha)	female fertility of treated male infertile plants ([1]; pollinated with pollen from untreated non-transgenic or conditionally female-sterile tobacco)	seed production after treatment ([2]; foliar spray prior to or during early flower formation, selected lines)	vegetative damage (appearance of treated plants) ([2]; foliar spray prior to or during early flower formation, treatment rates of up to 5 kg/ha)	viable pollen production after treatment ([2]; same treatment conditions as for seed production)	reproductive tolerance to the herbicide [3]	reproductive tolerance to the herbicide [4]
CP(=O)(O)CC[C@H](N)C(=O)O (racemic) [phosphinothricin]	no or relatively little pollen and/or pollen which is not viable	remain female fertile	relatively little or no seed	relatively undamaged	near normal levels of viable pollen	–	–
CP(=O)(O)CCC(N)C(=O)O (stereo not drawn) [DL PPT, DL phosphinothricin]	–	–	–	–	–	substantially complete reproductive tolerance	substantially reproductively tolerant
